From patent US5556840A, “2',5'-phosphorothioate oligoadenylates as anitiviral agents” (Temple University - Of The Commonwealth System of Higher …, priority 1994, dated 1996) come the findings set out here.

Entries after “also recorded” stand apart in the source; their conditions may differ. Where two headings read alike, the source gives them in different places.

For data set [1], the system named is tobacco mosaic virus (TMV). The data set can be described thus: TMV replication in intact Nicotiana glutinosa plants (local lesions). In kind it is in vivo. To be noted: 2 × 10^-5 M in infecting solution; 48 hr after infection; half-leaves of N. glutinosa. Here is the method: Carborundum (400 mesh) was sprinkled lightly onto leaves. Solutions containing 0.2 micrograms per ml of TMV and 2×10^-5 M 2',5'-phosphorothioate oligoadenylate in phosphate buffer were applied onto half-leaves of N. glutinosa with either a gloved finger or with a pipettor. The remaining half-leaves were controls (inoculated with the buffer solution containing TMV, but no active compound). The infection was allowed to proceed 48 h under continuous illumination of about 1500 Lx at which time local virus lesions appeared. Inhibition of TMV replication was calculated as the percent of local lesions produced in 2',5'-phosphorothioate oligoadenylate-treated half-leaves compared to control half-leaves.
^4 Inhibition of TMV replication was detected 48 hr after infection
and was calculated as the percent of local lesions produced in treated
halfleaves of N. glutinosa compared to control halfleaves.

Data set [2] has as its system HIV reverse transcriptase. Nature of the data set: HIV reverse transcriptase activity. In kind it is biochemical, HIV (HTLV-IIIB). Particulars: 200 uM; for Reverse Transcriptase Activity: control 187×10^3 cpm (reactions 1-4), 273×10^3 cpm (reactions 5-13). The procedure:
HIV reverse transcriptase (RNA-dependent DNA nucleotidyl-transferase) activity was assayed by a modification of the procedure of Poiesz et al. (Poiesz, B. J., Ruscetti , F. W., Gazdar, A. F., Bunn, P. S., Minna, J. D., and Gallo, R. C., Proc. Natl. Acad. Sci. U.S.A. 77: 7415-7419 (1980)).
Cultured H-9 cells are grown at 10^6 cells/ml in RPMI-1640 medium and 20% heat-inactivated fetal calf serum. Cell suspensions are centrifuged (1000×g, 10 min.) and the supernatant is removed. Virus particles are precipitated from this cell-free supernatant to which 0.3 ml of 4M NaCl and 3.6 ml of 30% (weight/volume) polyethylene glycol are added. The suspension is placed on ice for 2 hr following centrifugation at 15,000×g for 30 min at 0° C. The precipitate is resuspended in 200 microliters of 50% glycerol (vol./vol.)/25 mM Tris-HCl (pH 7.5)/5 mM dithiothreitol/50 mM KCl/0.025% Triton X-100. Virus particles are lysed by the addition of 100 microliters of 0.9% Triton X-100/1.5M KCl. Reverse transcriptase assays are performed at 37° C. for 1 hr with 10 microliters of the lysed virus solution in a final reaction volume of 100 microliters containing: 40 mM Tris-HCl (pH 7.8), 4 mM dithiothreitol, 45 mM KCl and 2.5 micrograms of template primer [poly(A)-dT15, 0.5 micrograms/microliter] (with a signal Mg^++ concentration of 10 mM). At this time, 10 microliters of the 2',5'-phosphorothioate oligoadenylate is added to a final concentration of 200 micromolar. Reaction mixtures also contain 4 micromoles of [^3 H]dTTP. Reactions are stopped by the addition of cold 5% trichloroacetic acid and filtered through nitrocellulose discs. The discs are dried and the radioactivity bound to the discs is determined. Reverse transcriptase activity is expressed as the percent relative to a control.
The compounds were assayed in the above manner in two sets, each set having a separate set of controls. The compounds of reactions 1-4 were assayed against control #1, which was 187×10^3 cpm. The compounds used in reactions 5-13 were assayed against control #2, which was 273×10^3 cpm.

Data set [3] has as its system RNase L. The data set can be described thus: rRNA cleavage assay using L929 cell extracts (28S and 18S rRNA). In kind it is biochemical, mouse. To be noted: for concentration at which RNase L was activated to cleave 28S and 18S rRNA: L929 cell extracts, '>' = no activation at that concentration. Here is the method: Activation of RNase L by 2',5'-phosphorothioate adenylate trimer cores and their 5'-monophosphates was also measured in an rRNA cleavage assay using L929 cell extracts.
The corresponding 5'-monophosphates pARp ARp A, pASp ARp A (at 10^-8 M) and pARp ASp A (at 10^-7 M) activated RNase L to cleave 28S and 18S rRNA.

The subject of data set [4] is RNase L. Nature of the data set: Activation or inhibition of RNase L, general statements without assay named. In kind it is biochemical.
Data set [5] has as its system SVPD. Nature of the data set: Hydrolysis by SVPD (snake venom phosphodiesterase). In kind it is in vitro ADME. Here is the method:
It is known that the enzyme SVPD preferentially cleaves Rp-3',5'- or 2',5'-phosphorothioate linkages from the 2'/3'-terminus. Nelson et al, J. Org. Chem. 49:2314-2317 (1984); Eppstein et al, J. Biol. Chem. 261:5999-6003 (1986); Lee et al, Biochemistry 24:551-555 (1985). SVPD hydrolysis of the chemically synthesized dimer core ARp A yielded adenosine and AMPS in a molar ratio of 1:1, respectively; the half-life was 3 hours (Table 3).
(§1) The metabolic stability of the 2,5'-phosphorothioate dimer and trimer cores is markedly greater than authentic 2-5A. The rate of hydrolysis of the trimer cores by the 3'-exonuclease SVPD is, in order of decreasing stability: ASp ARp A>ARp ARp A>>>A3. […] The 3'->'5'direction of stepwise cleavage by SVPD is blocked by an Sp configuration, preventing cleavage of the upstream adjacent phosphorothioate linkage. […] With both SVPD and 2'-PDE, the dimer cores (either ARp A or ASp A) accumulate following hydrolysis of the ARp ARp A, ASp ARp A and ARp ASp A trimer cores. Hydrolysis of the 2-5A molecule by SVPD and 2'-PDE proceeds from the 2'/3'-terminus. Therefore, introduction of the phosphorothioate group into the trimer core results in the accumulation of the ARp A or ASp A dimer cores from the 5'-terminus and the accumulation of AMPS from the 2'/3'-terminus (Table 3). With authentic A3, there is no detectable accumulation of A2 following hydrolysis by SVPD or 2'-PDE.

The test system of data set [6] is 2'-phosphodiesterase (2'-PDE), L cell extract. Nature of the data set: Hydrolysis by 2'-phosphodiesterase in L cell extract. In kind it is in vitro ADME.
Description: The four 2,5-phosphorothioate adenylate trimer cores were further characterized by hydrolysis with the enzyme 2'-phosphodiesterase ("2'-PDE"), an exoribonuclease found in L cell extract The enzyme cleaves from the 2'/3'-terminus.
as §1

The test system of data set [7] is serum phosphodiesterases. The data set can be described thus: Hydrolysis by serum phosphodiesterases.
For data set [8], the system named is RNase L. Nature of the data set: Core-cellulose assay: activation of partially-purified RNase L to hydrolyze poly(U)-3'-[32P]pCp. In kind it is biochemical, mouse. Here is the method: FIG. 1B represents the results of a core-cellulose assay indicating the ability of the 2',5'-phosphorothioate adenylate trimer cores and 5'-monophosphates to activate partially-purified RNase L from L929 cell extracts to hydrolyze the substrate polY(U)-3'-[^32 P]pCp. Activation of RNase L was determined by conversion of poly (U )-3'-[^32 P]pCp to acid-soluble fragments. 100% represents 30,000 cpm of labelled poly(U)-3'-[^32 P]pCp bound to glass fiber filters. The curves are labelled in the same manner as FIG. 1A.
The 2',5'-phosphorothioate cores, with one exception, have the correct stereoconfiguration to activate RNase L. The activation of partially-purified RNase L by the 2',5'-phosphorothioates was measured according to the core-cellulose assay of Silverman, Analyt. Biochem. 144:450-460 (1985) which relies on hydrolysis of the substrate poly(U)-3-[^32 P]pCp. […] (FIG. 1B) The order of activation of the trimer cores and the corresponding 5'-monophosphates is: RpRp>SpRp>RpSp (FIG. 1B).

Regarding “5'-O-Phosphoryl-(Rp)-thioadenylyl-(2'-5')-(Sp)-thioadenylyl-(2'-5')-adenosine [pARp ASp A]”, the “Percent TMV Inhibition” value in data set [1] was 15%. In addition, in data set [2], the “Percent Inhibition of HIV reverse transcriptase” value (shortened to “Percent Inhibition”) was determined as 25% and the “Reverse Transcriptase Activity” value is on record as 206 10^3 cpm. Also, the “concentration at which RNase L was activated to cleave 28S and 18S rRNA” value (from here on “concentration … to cleave 28S and 18S rRNA”) in data set [3] is reported as 10^-7 M. In addition, the “effect on RNase L activation (result in words)” value in data set [4] is “relatively metabolically stable and highly efficient activator for RNase L”.
Turning to “5'-O-Phosphoryl-(Sp)-thioadenylyl-(2'-5')-(Rp)-thioadenylyl-(2'-5')-adenosine [pASp ARp A]”, the “Percent TMV Inhibition” value in data set [1] is 23%. Besides, in data set [2], the “Percent Inhibition” value came to 16% and the “Reverse Transcriptase Activity” value is on record as 230 10^3 cpm. Further, the “concentration … to cleave 28S and 18S rRNA” value in data set [3] is recorded as 10^-8 M.
As to `Nc1ncnc2c1ncn2[C@@H]1O[C@H](CO[P@@](O)(=S)O[C@@H]2[C@H](O)[C@@H](CO)O[C@H]2n2cnc3c(N)ncnc32)[C@@H](O)[C@H]1O` [Compound 6A, P-Thioadenylyl-(2'-5')-adenosine], the “half life, hydrolysis by SVPD” value in data set [5] is 3 h. The “hydrolysis by L cell extract / 2'-PDE (result in words)” value (“hydrolysis by L cell extract / 2'-PDE” for short) in data set [6] is listed as “not cleaved”; in data set [6] (listed as ARp A) it was “not substrates for 2'-PDE”. Moreover, in data set [7], the “hydrolysis by serum phosphodiesterases (result in words)” value was “not cleaved”.
Turning to `Nc1ncnc2c1ncn2[C@@H]1O[C@H](CO[P@](O)(=S)O[C@@H]2[C@H](O)[C@@H](CO)O[C@H]2n2cnc3c(N)ncnc32)[C@@H](O)[C@H]1O` [Compound 6B, P-Thioadenylyl-(2'-5')-adenosine], the “hydrolysis by SVPD (result in words)” value is reported as “not cleaved” in data set [5] and “not a substrate for SVPD” in data set [5] (listed as ASp A). Also, the “hydrolysis by L cell extract / 2'-PDE” value in data set [6] is “not cleaved”; in data set [6] (listed as ASp A), “not substrates for 2'-PDE”. Further, the “hydrolysis by serum phosphodiesterases (result in words)” value in data set [7] is reported as “not cleaved”.
In the case of “(Rp)-P-Thioadenylyl-(2'-5')-(Rp)-P-thioadenylyl-(2'-5')-adenosine [Compound 9A]”, the “Percent TMV Inhibition” value in data set [1] was 57%. Besides, in data set [5], the “half life, hydrolysis by SVPD” value amounted to 1 h and the “hydrolysis by SVPD (result in words)” value is “hydrolysis by SVPD to yield AMPS plus ARp A”. In data set [2], the “Percent Inhibition” value worked out at 18% and the “Reverse Transcriptase Activity” value is 224 10^3 cpm. The “half life, hydrolysis by L cell extract” value in data set [6] is reported as 18 h. Further, the “concentration … to cleave 28S and 18S rRNA” value in data set [3] was 10^-5 M. Further, in data set [7], the “half life, hydrolysis by serum phosphodiesterases” value was 8 h.
Turning to “(Rp)-P-thioadenylyl-(2'-5')-(Sp)-P-thioadenylyl-(2'-5')-(Sp)-P-thioadenylyl-(2'-5')-adenosine [ARp ASp ASp A]”, the “Percent TMV Inhibition” value in data set [1] is 80%. Besides, in data set [2], the “Percent Inhibition” value is on record as 46% and the “Reverse Transcriptase Activity” value is 147 10^3 cpm.
Regarding “(Sp)-P-Thioadenylyl-(2'-5')-(Rp)-P-thioadenylyl-(2'-5')-adenosine [Compound 9B]”, the “Percent TMV Inhibition” value in data set [1] worked out at 33%. Also, in data set [5], the “half life, hydrolysis by SVPD” value amounted to 8 h; the “hydrolysis by SVPD (result in words)” value was “yielded ASp A and AMPS”. In addition, in data set [2], the “Percent Inhibition” value came out at 6% and the “Reverse Transcriptase Activity” value is on record as 258 10^3 cpm. The “half life, hydrolysis by L cell extract” value in data set [6] is on record as 15 h. Moreover, the “concentration … to cleave 28S and 18S rRNA” value in data set [3] is given as 10^-5 M. Moreover, the “hydrolysis by serum phosphodiesterases (result in words)” value in data set [7] was “not cleaved”.
Consider “(Sp)-P-Thioadenylyl-(2'-5')-(Sp)-P-thioadenylyl-(2'-5')-adenosine [Compound 10B]”, for which, in data set [1], the “Percent TMV Inhibition” value amounted to 80%. The “hydrolysis by SVPD (result in words)” value in data set [5] was “not substrates for SVPD; also recorded: not cleaved”. In addition, the “hydrolysis by SVPD (result in words)” value in data set [5] (listed as ASp ASp A) is on record as “not substrates of SVPD”. Besides, in data set [2], the “Percent Inhibition” value was found to be 20% and the “Reverse Transcriptase Activity” value was 219 10^3 cpm. In data set [6], the “hydrolysis by L cell extract / 2'-PDE” value is given as “not cleaved”. Further, the “hydrolysis by L cell extract / 2'-PDE” value in data set [6] (listed as ASp ASp A) is “not cleaved by L-cell extract”. In data set [3], the “inhibition of RNase L activation, rRNA cleavage assay (result in words)” value is reported as “inhibit RNase L activation”; the “concentration … to cleave 28S and 18S rRNA” value is recorded as > 10^-4 M. For the same compound, the “inhibition of RNase L activation, core-cellulose assay (result in words)” value in data set [8] is “inhibit RNase L activation”. Moreover, the “concentration up to which RNase L was not activated, core-cellulose assay” value in data set [8] (poly(U)-3'-[32P]pCp substrate, not activated at the concentration) is > 10^-3 M. The “hydrolysis by serum phosphodiesterases (result in words)” value in data set [7] was “not cleaved”. Also, in data set [4], the “effect on RNase L activation (result in words)” value is reported as “selectively inactivates RNase L”.
Regarding “(Sp)-P-thioadenylyl-(2'-5')-(Sp)-P-thioadenylyl-(2'-5')-(Sp)-P-thioadenylyl-(2'-5')-adenosine [ASp ASp ASp A]”, in data set [1], the “Percent TMV Inhibition” value turned out to be 70%. Moreover, in data set [2], the “Percent Inhibition” value came to 45% and the “Reverse Transcriptase Activity” value was 149 10^3 cpm.
